The results in this text go back to a polymer gas permeability compilation.

Compound `*c1c(C)cc2c(c1C)C1c3ccccc3C2c2cc(C)c(-n3c(=O)c4cc5c(=O)n(*)c(=O)c5cc4c3=O)c(C)c21` (repeat unit) had a CH4 permeability of 238 Barrer, a CO2 permeability of 3360 Barrer, an H2 permeability of 2380 Barrer and an N2 permeability of 180 Barrer. This compound also showed an O2 permeability of 680 Barrer.

With `*Oc1ccc(Oc2ccc(Oc3ccc(S(=O)(=O)c4ccc(*)cc4)cc3)cc2)cc1` (repeat unit), the CH4 permeability is 0.18 Barrer, the CO2 permeability came to 4.3 Barrer, the H2 permeability was 15 Barrer and the N2 permeability was found to be 0.196 Barrer. The O2 permeability was 1.1 Barrer.

In the case of `*c1ccc2c(c1)C1c3ccccc3C2c2ccc(N3C(=O)c4ccc(C(c5ccc6c(c5)C(=O)N(*)C6=O)(C(F)(F)F)C(F)(F)F)cc4C3=O)cc21` (repeat unit), the CH4 permeability worked out at 3.65 Barrer, the CO2 permeability worked out at 131 Barrer, the H2 permeability came out at 212 Barrer and the N2 permeability came to 5.32 Barrer. This compound also registered an O2 permeability of 28.1 Barrer.

The compound `*OC1OC(COC(=O)NC(C)(C)C)C(*)C(OCC)C1OCC` (repeat unit) yielded a CH4 permeability of 9.45 Barrer, a CO2 permeability of 94.5 Barrer, an H2 permeability of 73 Barrer and an N2 permeability of 4.3 Barrer. Also, the O2 permeability was 16 Barrer.

The compound `*[Si](C)(C)c1cccc([Si](*)(C)C)c1` (repeat unit) yielded an N2 permeability of 31.9 Barrer and an O2 permeability of 75.6 Barrer.

Compound `*Oc1ccc(Oc2cccc(*)c2C#N)c(-c2cc(C(F)(F)F)cc(C(F)(F)F)c2)c1` (repeat unit) had a CH4 permeability of 0.83 Barrer, a CO2 permeability of 19 Barrer, an H2 permeability of 35 Barrer and an N2 permeability of 1.12 Barrer. For the same compound, the O2 permeability is 6.6 Barrer.

As to `*c1ccc(N(c2ccc(N3C(=O)c4ccc(C(c5ccc6c(c5)C(=O)N(*)C6=O)(C(F)(F)F)C(F)(F)F)cc4C3=O)cc2)c2ccc(N(c3ccc(OC)cc3)c3ccc(OC)cc3)cc2)cc1` (repeat unit), the CH4 permeability came out at 0.4 Barrer, the CO2 permeability was found to be 13 Barrer, the N2 permeability was determined as 0.59 Barrer and the O2 permeability was found to be 2.94 Barrer.

For the compound `*Oc1ccc(Oc2ccc(C(=O)c3ccc(*)cc3)cc2)c(-c2cc(C(F)(F)F)cc(C(F)(F)F)c2)c1` (repeat unit), the CH4 permeability is 0.38 Barrer, the CO2 permeability was found to be 8.7 Barrer, the H2 permeability turned out to be 21 Barrer and the N2 permeability is 0.54 Barrer. This compound displayed an O2 permeability of 3.3 Barrer.

For the compound `*C(=C(*)c1ccc2c(c1)C(C)(C)c1ccccc1-2)c1ccccc1` (repeat unit), the CH4 permeability was 9100 Barrer, the CO2 permeability came out at 17000 Barrer, the H2 permeability was 8100 Barrer and the N2 permeability was determined as 3300 Barrer. This compound also gave an O2 permeability of 4800 Barrer.

For the compound `*CCCC*` (repeat unit), the CH4 permeability was determined as 13 Barrer, the CO2 permeability came out at 48.4 Barrer, the N2 permeability was 4 Barrer and the O2 permeability was 11.3 Barrer.

`*Oc1ccc(C(c2ccc(Oc3ccc(S(=O)(=O)c4ccc(*)cc4)cc3)cc2)c2ccccc2C(=O)O)cc1` (repeat unit) displayed a CH4 permeability of 0.0395 Barrer, a CO2 permeability of 2.25 Barrer, an H2 permeability of 7.22 Barrer and an N2 permeability of 0.0437 Barrer. Besides, the O2 permeability is 0.441 Barrer.

For the compound `*c1ccc2c(-c3c(OC(C)=O)ccc4cc(N5C(=O)c6ccc(C(c7ccc8c(c7)C(=O)N(*)C8=O)(C(F)(F)F)C(F)(F)F)cc6C5=O)ccc34)c(OC(C)=O)ccc2c1` (repeat unit), the CH4 permeability is 0.12 Barrer, the CO2 permeability is 5.05 Barrer, the H2 permeability stood at 6.56 Barrer and the N2 permeability is 0.23 Barrer. For the same compound, the O2 permeability worked out at 1.19 Barrer.

In turn, `*Nc1ccc(S(=O)(=O)c2ccc(NC(=O)c3cccc(C(*)=O)c3)cc2)cc1` (repeat unit) registered a CH4 permeability of 0.014 Barrer, a CO2 permeability of 0.78 Barrer, an H2 permeability of 4.3 Barrer and an N2 permeability of 0.031 Barrer. Also, the O2 permeability turned out to be 0.19 Barrer.

As to `*CC[Si](C)(C)c1ccc([Si](*)(C)C)cc1` (repeat unit), the CH4 permeability was found to be 0.53 Barrer, the CO2 permeability was 4.01 Barrer, the N2 permeability was determined as 0.257 Barrer and the O2 permeability turned out to be 1.11 Barrer.

The compound `*Oc1ccc(S(=O)(=O)c2ccc(Oc3ccc(C(C)(c4ccccc4)c4ccc(*)cc4)cc3)cc2)cc1` (repeat unit) showed a CH4 permeability of 0.32 Barrer, a CO2 permeability of 8.12 Barrer, an N2 permeability of 0.278 Barrer and an O2 permeability of 1.56 Barrer.

In the case of `*Nc1ccc(C(=O)c2ccc(NC(=O)c3cccc(C(*)=O)c3)cc2)cc1` (repeat unit), the CO2 permeability came out at 0.32 Barrer and the O2 permeability worked out at 0.069 Barrer.

On to `*Oc1ccc(C(C)(C)c2ccc(Oc3ccc(S(=O)(=O)c4ccc(*)cc4)cc3)c(C)c2)cc1C` (repeat unit), for which the CH4 permeability amounted to 0.07 Barrer, the CO2 permeability is 2.1 Barrer, the H2 permeability stood at 11 Barrer and the N2 permeability came to 0.091 Barrer. The compound further showed an O2 permeability of 0.64 Barrer.

As to `*Oc1ccc(C(C)(C)c2ccc(OC(=O)c3cc(C(*)=O)cc(C(C)(C)C)c3)cc2)cc1` (repeat unit), the CH4 permeability is 1.43 Barrer, the CO2 permeability was 24.2 Barrer, the H2 permeability amounted to 41.9 Barrer and the N2 permeability was determined as 1.18 Barrer. For the same compound, the O2 permeability turned out to be 5.95 Barrer.

`*Oc1ccc(C(C)(C)c2ccc(OC(*)=O)cc2)cc1` (repeat unit) showed a CH4 permeability of 0.331 Barrer, a CO2 permeability of 7.54 Barrer, an H2 permeability of 13 Barrer and an N2 permeability of 0.3 Barrer. The compound also came in with an O2 permeability of 1.48 Barrer.

On to `*Oc1ccc(S(=O)(=O)c2ccc(Oc3c(C)cc(C(C)(C)c4cc(C)c(*)c(C)c4)cc3C)cc2)cc1` (repeat unit), for which the CH4 permeability was determined as 0.522 Barrer, the CO2 permeability was 21 Barrer, the H2 permeability was 15.5 Barrer and the N2 permeability was 1.06 Barrer. This compound also returned an O2 permeability of 5.6 Barrer.

In the case of `*/C=C/c1ccc(*)cc1[Si](C)(C)CCCCCCCCCCCCCCCCCC` (repeat unit), the CO2 permeability was 61 Barrer, the N2 permeability is 4.5 Barrer and the O2 permeability was determined as 12 Barrer.

In turn, `*c1ccc(-c2ccc(Oc3ccc(C4(c5ccc(Oc6ccc(-c7ccc(N8C(=O)c9ccc(C(=O)c%10ccc%11c(c%10)C(=O)N(*)C%11=O)cc9C8=O)cc7)cc6C(F)(F)F)cc5)c5ccccc5C(=O)N4c4ccccc4)cc3)c(C(F)(F)F)c2)cc1` (repeat unit) displayed a CH4 permeability of 0.62 Barrer, a CO2 permeability of 17.1 Barrer, an N2 permeability of 0.83 Barrer and an O2 permeability of 4.33 Barrer.

`*/C=C/C1CC(*)CC1[Si](C)(C)C[Si](C)(C)C` (repeat unit) registered a CH4 permeability of 8.5 Barrer, a CO2 permeability of 67 Barrer, an H2 permeability of 73 Barrer and an N2 permeability of 3.7 Barrer. The compound further yielded an O2 permeability of 16 Barrer.

Regarding `*c1cc(-c2nc3cc(-c4ccc5[nH]c(*)nc5c4)ccc3[nH]2)cc(C(C)(C)C)c1` (repeat unit), the CH4 permeability turned out to be 0.05 Barrer, the CO2 permeability was 1.91 Barrer, the H2 permeability is 10.7 Barrer and the N2 permeability came out at 0.06 Barrer. In addition, the O2 permeability came to 0.42 Barrer.
